Test results reported in patent publication US11857601B2, “Pharmaceutical composition for cancer treatment comprising fusion protein including IL-2 protein and CD80 protein and anticancer drug” (GI INNOVATION, INC., priority 2020, dated 2024).

Key:
[1] = system: immune cells in cancer tissues; experiment: Immune cell analysis in LL/2 cancer tissue (FACS); format: in vivo, C57BL/6 mice
Protocol: The mice of each group in Experimental Example 16.1 were sacrificed when the tumor volume reached an average of 200 mm^3, and cancer tissues were collected.
Thereafter, FACS analysis was performed in the same manner as Experimental Example 16.2. to analyze immune cells in the cancer tissues.

[2] = system: HCT116 cells; experiment: Cancer cell killing, GI-101 and Pertuzumab, HCT116 with NK cells; format: cell-based, human; settings: GI-101 0.4-100 nM, Pertuzumab 16.9 nM, 24 hours
Source text: This experiment was to evaluate the effect of killing cancer cells by treating HCT116 cells (human colon cancer cells) with the test substance GI-101 alone or in combination with Pertuzumab substance in an in vitro environment.
HCT116 cells were purchased from the Korea cell line bank and cultured in McCoy's 5A medium (ATCC) containing 10% FBS (Gibco) and 1% antibiotic/antifungal agent (Gibco). For use in cancer cell killing test, the cells were harvested using trypsin (Gibco), and then suspended in McCoy's 5A medium, and then dead cells and debris were removed using Ficoll (GE Healthcare Life Sciences) solution. The cells suspended in McCoy's 5A medium were carefully layered on ficoll solution. […]
In order to identify the effect of killing the cells, a CytoTox Green reagent ([…]™ CytoTox Green, Satorius) that binds to the DNA of cells to be killed was prepared in 1 μl per 1 mL of RPMI1640 medium containing 5% human AB serum (Sigma). The prepared medium was used for dilution of the test substance, and the effect of killing the cells could be quantitatively identified by staining the cells to be killed when the test substance was co-cultured with cancer cell lines and PBMCs. […]

[3] = system: TC1 cells; experiment: mGI-101, Cisplatin, Pemetrexed and anti-PD-1 antibody, 1st line and maintenance therapy, TC1 tumor model; format: in vivo, C57BL/6 mice; settings: mGI-101 3 mg/kg i.p. QW; compared with anticancer chemotherapeutic agent and anti-PD-1 antibody
Protocol: Mouse-derived lung cancer cell line, TC1, was purchased from ATCC (USA) and used for the test.
TC1 cells were cultured in RPMI1640 medium (Gibco) containing 10% FBS (Gibco) and 1% antibiotic/antifungal agent (Gibco). The cultured cells were harvested using trypsin (Gibco), and then 1×10^6 of TC1 cells were subcutaneously injected into the right flank of C57BL/6 female mice (7-week-old) in order to establish an allotransplanted tumor model.
The mice were randomly assigned based on tumor volume (˜100 mm^3), each group including 13 to 19 mice. The tumor grafts were identified about day 2 after cell inoculation.
The test was divided into the 1st line treatment and the anticancer maintenance therapy. […]
Clinical symptoms such as a disease and a behavioral change were observed once a day during the test period, and deceased animals were identified, and the mice were sacrificed when the tumor size reached a size of 4,000 mm^3. The size of the TC1 solid cancer was measured using a tumor 3D scanner (TM900, Peria, Belgium). […] The anti-tumor efficacy was evaluated as compared with the mouse IgG4 control. […]

GI101: fusion protein: human CD80 fragment, Ig hinge, Fc domain, linker, IL-2 variant (2M) (R38A, F42A); SEQ ID NO: 9
CD8+ T cells in cancer tissue ([1]; 0.1 mg/kg, compared with anti-PD-1 antibody alone): significant increase
level of CD86 expression in macrophages and dendritic cells ([1]; all GI101 groups): increased level
level of expression of IFN-γ ([1]; all GI101 groups, vs negative control): significantly increased level
effect of killing cancer cells [2]: excellent effect of killing cancer cells

mGI101: fusion protein: mouse CD80, Ig hinge, Fc domain, linker, IL-2 variant (2M) (R38A, F42A); SEQ ID NO: 15
anticancer effect, anticancer maintenance therapy [3]: as much anticancer effect as the group having received an anticancer chemotherapeutic agent and an anti-PD-1 antibody
